The source of these data is patent publication US20230062119A1, “USE OF BIOMARKERS IN IDENTIFYING PATIENTS THAT WILL BE RESPONSIVE TO TREATMENT WITH A PRMT5 INHIBITOR” (Merck Sharp & Dohme LLC, priority 2019, published 2023).

The pEC50 is −log10 of the EC50, conventionally taken in molar units.

The target of this experiment is T1, Full-length (FL)-PRMT5-MEP50 enzyme complex (Homo sapiens, UniProt O14744).
T1 construct: Full-length (FL)-PRMT5-MEP50 enzyme complex (recombinant proteins from baculovirus-transfected Sf21 cells: FL-PRMT5; MW=73837 kDa and FL-MEP50; MW=38614); made in house; host or cells: baculovirus-transfected Sf21 insect cells
T1 sequence (O14744 whole entry): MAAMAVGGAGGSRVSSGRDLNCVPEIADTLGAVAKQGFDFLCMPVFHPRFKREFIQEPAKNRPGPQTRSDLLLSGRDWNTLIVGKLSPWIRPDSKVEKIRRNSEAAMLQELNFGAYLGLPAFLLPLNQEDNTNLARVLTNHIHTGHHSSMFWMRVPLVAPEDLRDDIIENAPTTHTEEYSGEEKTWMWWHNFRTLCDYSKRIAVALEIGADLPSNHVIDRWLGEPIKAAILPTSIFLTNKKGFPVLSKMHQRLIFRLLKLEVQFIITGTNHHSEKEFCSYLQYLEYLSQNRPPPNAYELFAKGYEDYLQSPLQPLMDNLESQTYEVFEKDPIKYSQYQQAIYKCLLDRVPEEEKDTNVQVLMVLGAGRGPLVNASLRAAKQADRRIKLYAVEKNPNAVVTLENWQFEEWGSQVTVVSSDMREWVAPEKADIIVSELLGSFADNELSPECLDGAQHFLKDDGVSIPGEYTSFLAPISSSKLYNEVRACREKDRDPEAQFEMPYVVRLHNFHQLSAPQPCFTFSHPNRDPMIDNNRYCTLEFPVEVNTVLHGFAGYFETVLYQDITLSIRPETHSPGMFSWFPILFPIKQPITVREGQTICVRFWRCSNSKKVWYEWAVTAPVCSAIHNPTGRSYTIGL
T1 sequence (Q9BQA1 whole entry partner): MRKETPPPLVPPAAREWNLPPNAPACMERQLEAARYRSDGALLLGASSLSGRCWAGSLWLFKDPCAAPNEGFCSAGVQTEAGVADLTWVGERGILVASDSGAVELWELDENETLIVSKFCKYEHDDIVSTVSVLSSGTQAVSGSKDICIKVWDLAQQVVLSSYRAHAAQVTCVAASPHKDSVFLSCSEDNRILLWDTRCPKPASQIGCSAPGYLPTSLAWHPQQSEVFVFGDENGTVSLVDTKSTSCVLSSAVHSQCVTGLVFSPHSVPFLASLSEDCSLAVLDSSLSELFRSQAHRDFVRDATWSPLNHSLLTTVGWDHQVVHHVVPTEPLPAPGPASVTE
The experiment can be described thus: PRMT5-MEP50 Enzyme Methylation Assay. The settings on record: 1.0 nM PRMT5-MEP50, 75 nM biotinylated peptide, 15 μM SAM. The experiment is classed as biochemical. Put shortly:
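Compound was pre-incubated 60 min at 37°C with 1.0 nM enzyme and 15 μM SAM (final) in 50 mM Bicine pH 8.0, then 75 nM biotinylated H4R3(Me1) peptide was added and reacted 150 min; twenty-point 1:2 titration from 100000 nM, 1% DMSO. Formic acid quench; SAMDI mass spectrometry measured Me1-to-Me2 conversion, EC50 by 4- or 7-parameter regression.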

Setting [1] is: one EC50: 4 parameters single site sigmoidal model, EC50 1: first value of 7 parameters biphasic model, read-out: Enzyme Methylation Assay (EC50 or EC50 1).
The mark [2] stands for this setting: second EC50 of 7 parameters biphasic model, read-out: Enzyme Methylation Assay (EC50 2).

pEC50: −log10 of the molar value. Read-outs that look alike come from different tables or passages of the source.

As for `C[C@@]1(O)[C@@H](CCc2ccc3cc(Br)c(N)nc3c2)C[C@@H](n2ccc3c(N)ncnc32)[C@@H]1O` [Example 103, (1R,2S,3R,5S)-5-(2-(2-amino-3-bromoquinolin-7-yl)ethyl)-3-(4-amino-7H-pyrrolo[2,3-d]pyrimidin-7-yl)-1-methylcyclopentane-1,2-diol], the pEC50 by setting is: under setting [1], 9.40; under setting [2], 7.39.

For the molecule `Nc1ccc2ccc(O[C@H]3CC[C@@]4(O)[C@@H]3O[C@@H](n3ccc5c(N)ncnc53)[C@@H]4O)cc2n1` [Example 104, (2R,3R,3aS,6S,6aR)-2-(4-amino-7H-pyrrolo[2,3-d]pyrimidin-7-yl)-6-((2-aminoquinolin-7-yl)oxy)hexahydro-2H-cyclopenta[b]furan-3,3a-diol], under setting [1], the pEC50 was 8.42.

On to `C[C@@]1(O)[C@@H](COc2ccc3ccc(N)nc3c2)C[C@@H](n2ccc3cncnc32)[C@@H]1O` [Example 105, (1R,2S,3R,5R)-5-(((2-aminoquinolin-7-yl)oxy)methyl)-1-methyl-3-(7H-pyrrolo[2,3-d]pyrimidin-7-yl)cyclopentane-1,2-diol], for which the pEC50 reads like this: under setting [1], 9.52; under setting [2], 7.66.

Turning to `Cc1cc2ccc(OC[C@H]3C[C@@H](n4ccc5c(C)ncnc54)[C@H](O)[C@]3(C)O)cc2nc1N` [Example 106, (1R,2S,3R,5R)-5-(((2-amino-3-methylquinolin-7-yl)oxy)methyl)-1-methyl-3-(4-methyl-7H-pyrrolo[2,3-d]pyrimidin-7-yl)cyclopentane-1,2-diol], under setting [1], the pEC50 is 9.52.

On to `Cc1ncnc2c1ccn2[C@@H]1O[C@@H]2[C@H](Cc3ccc4ccc(N)nc4c3)CC[C@]2(O)[C@H]1O` [Example 107, (2R,3R,3aS,6S,6aR)-6-((2-aminoquinolin-7-yl)methyl)-2-(4-methyl-7H-pyrrolo[2,3-d]pyrimidin-7-yl)hexahydro-2H-cyclopenta[b]furan-3,3a-diol], for which, under setting [1], the pEC50 was 9.70.

`Nc1nc2cc(C[C@@H]3CC[C@@]4(O)[C@@H]3O[C@@H](n3cc(F)c5c(N)ncnc53)[C@@H]4O)ccc2cc1Br` [Example 108, (2R,3R,3aS,6S,6aR)-6-((2-amino-3-bromoquinolin-7-yl)methyl)-2-(4-amino-5-fluoro-7H-pyrrolo[2,3-d]pyrimidin-7-yl)hexahydro-2H-cyclopenta[b]furan-3,3a-diol]: under setting [1], the pEC50 was 9.70.

As to `Cc1ncnc2c1ccn2[C@@H]1C[C@](C)(CCc2ccc3cc(Br)c(N)nc3c2)[C@@H](O)[C@H]1O` [Example 109, (1S,2R,3S,5R)-3-(2-(2-amino-3-bromoquinolin-7-yl)ethyl)-3-methyl-5-(4-methyl-7H-pyrrolo[2,3-d]pyrimidin-7-yl)cyclopentane-1,2-diol], the pEC50 under setting [1] is 9.15.

On to `Cc1ncnc2c1ccn2[C@@H]1C[C@](C)(CCc2ccc3cc4c(nc3c2)NCC4)[C@@H](O)[C@H]1O` [Example 110, (1S,2R,3S,5R)-3-(2-(2,3-dihydro-1H-pyrrolo[2,3-b]quinolin-7-yl)ethyl)-3-methyl-5-(4-methyl-7H-pyrrolo[2,3-d]pyrimidin-7-yl)cyclopentane-1,2-diol], for which the pEC50 under setting [1] was 9.05.

`C[C@]1(COc2ccc3cc(Br)c(N)nc3c2)C[C@@H](n2ccc3c(N)ncnc32)[C@H](O)[C@]1(C)O` [Example 111, (1R,2S,3R,5R)-5-(((2-amino-3-bromoquinolin-7-yl)oxy)methyl)-3-(4-amino-7H-pyrrolo[2,3-d]pyrimidin-7-yl)-1,5-dimethylcyclopentane-1,2-diol]: the pEC50 under setting [1] was 7.51 and the pEC50 under setting [2] is 5.57.

As for `Cc1ncnc2c1ccn2[C@@H]1O[C@@H]2[C@@H](Oc3ccc4cc(Cl)c(N)nc4c3)CC[C@]2(O)[C@H]1O` [Example 112, (2R,3R,3aS,6S,6aR)-6-((2-amino-3-chloroquinolin-7-yl)oxy)-2-(4-methyl-7H-pyrrolo[2,3-d]pyrimidin-7-yl)hexahydro-2H-cyclopenta[b]furan-3,3a-diol], under setting [1], the pEC50 is 9.22.

Consider `Cc1ncnc2c1ccn2[C@@H]1O[C@@H]2[C@@H](Oc3ccc4ccc(N)nc4c3)CC[C@]2(O)[C@H]1O` [Example 113, (2R,3R,3aS,6S,6aR)-6-((2-aminoquinolin-7-yl)oxy)-2-(4-methyl-7H-pyrrolo[2,3-d]pyrimidin-7-Yl)hexahydro-2H-cyclopenta[b]furan-3,3a-diol], for which, under setting [1], the pEC50 is 8.96.

For `Cc1nc(N)nc2c1ccn2[C@@H]1O[C@@H]2[C@@H](Oc3ccc4cc(Br)c(N)nc4c3)CC[C@]2(O)[C@H]1O` [Example 114, (2R,3R,3aS,6S,6aR)-6-((2-amino-3-bromoquinolin-7-yl)oxy)-2-(2-amino-4-methyl-7H-pyrrolo[2,3-d]pyrimidin-7-yl)hexahydro-3aH-cyclopenta[b]furan-3,3a-diol], the pEC50 under setting [1] was 8.85.

Take `Cc1ncnc2c1ccn2[C@@H]1O[C@@H]2[C@@H](Oc3ccc4cc(C(F)F)c(N)nc4c3)CC[C@]2(O)[C@H]1O` [Example 115, (2R,3R,3aS,6S,6aR)-6-((2-amino-3-(difluoromethyl)quinolin-7-yl)oxy)-2-(4-methyl-7H-pyrrolo[2,3-d]pyrimidin-7-yl)hexahydro-3aH-cyclopenta[b]furan-3,3a-diol]: the pEC50 was 9.40 under setting [1] and 6.59 under setting [2].

As to `C[C@@]1(CCc2ccc3cc(F)c(N)nc3c2)C[C@@H](n2ccc3c(N)ncnc32)[C@H](O)[C@@H]1O` [Example 116, (1S,2R,3R,5R)-3-(2-(2-amino-3-fluoroquinolin-7-yl)ethyl)-5-(4-amino-7H-pyrrolo[2,3-d]pyrimidin-7-yl)-3-methylcyclopentane-1,2-diol], the pEC50 is 8.62 under setting [1] and 6.18 under setting [2].

For `C[C@]1(CCc2ccc3cc(Br)c(N)nc3c2)C[C@@H](n2ccc3c(N)ncnc32)[C@H](O)[C@]1(C)O` [Example 117, (1R,2S,3R,5S)-5-(2-(2-amino-3-bromoquinolin-7-yl)ethyl)-3-(4-amino-7H-pyrrolo[2,3-d]pyrimidin-7-yl)-1,5-dimethylcyclopentane-1,2-diol], the pEC50 under setting [1] was 9.00.

As for `C[C@]1(O)[C@@H](O)[C@H](n2ccc3c(N)ncnc32)C[C@]1(O)CCc1ccc2cc(Br)c(N)nc2c1` [Example 118, (1R,2S,3S,4R)-1-(2-(2-amino-3-bromoquinolin-7-yl)ethyl)-4-(4-amino-7H-pyrrolo[2,3-d]pyrimidin-7-yl)-2-methylcyclopentane-1,2,3-triol], the pEC50 reads like this: under setting [1], 8.49; under setting [2], 5.80.

Consider `Nc1nc2cc(O[C@H]3CC[C@@]4(O)[C@@H]3C[C@@H](n3ccc5c(N)ncnc53)[C@@H]4O)ccc2cc1Br` [Example 119, (1S,2R,3aR,4S,6aR)-4-((2-amino-3-bromoquinolin-7-yl)oxy)-2-(4-amino-7H-pyrrolo[2,3-d]pyrimidin-7-yl)hexahydropentalene-1,6a(1H)-diol 2,2,2-trifluoroacetate], for which the pEC50 is 9.00 under setting [1] and 6.94 under setting [2].

Take `Cc1ncnc2c1ccn2[C@@H]1O[C@@H]2[C@@H](Nc3ccc4cc(F)c(N)nc4c3)CC[C@]2(O)[C@H]1O` [Example 120, (2R,3R,3aS,6S,6aR)-6-((2-amino-3-fluoroquinolin-7-yl)amino)-2-(4-methyl-7H-pyrrolo[2,3-d]pyrimidin-7-yl)hexahydro-3aH-cyclopenta[b]furan-3,3a-diol]: the pEC50 under setting [1] is 9.22.
